Reference: patent US20050197338A1, “Substituted pyrazole urea compounds for the treatment of inflammation” (priority 2003, published 2005)

What follows are molecules tested against T1, human IKK-2 (rhIKK-2 homodimer) (Homo sapiens, UniProt O14920) (assay: IKK-2 Resin Enzyme Assay (Human IKK-2 Enzyme Assay)). Conditions: human IKK-2, resin enzyme assay; read-out: IC50 (μM) hIKK-2.
T1 construct: FLAG (DYKDDDDKD) (C); made in house; host or cells: insect cells (baculovirus, pFastBac)
T1 sequence (O14920 1-756): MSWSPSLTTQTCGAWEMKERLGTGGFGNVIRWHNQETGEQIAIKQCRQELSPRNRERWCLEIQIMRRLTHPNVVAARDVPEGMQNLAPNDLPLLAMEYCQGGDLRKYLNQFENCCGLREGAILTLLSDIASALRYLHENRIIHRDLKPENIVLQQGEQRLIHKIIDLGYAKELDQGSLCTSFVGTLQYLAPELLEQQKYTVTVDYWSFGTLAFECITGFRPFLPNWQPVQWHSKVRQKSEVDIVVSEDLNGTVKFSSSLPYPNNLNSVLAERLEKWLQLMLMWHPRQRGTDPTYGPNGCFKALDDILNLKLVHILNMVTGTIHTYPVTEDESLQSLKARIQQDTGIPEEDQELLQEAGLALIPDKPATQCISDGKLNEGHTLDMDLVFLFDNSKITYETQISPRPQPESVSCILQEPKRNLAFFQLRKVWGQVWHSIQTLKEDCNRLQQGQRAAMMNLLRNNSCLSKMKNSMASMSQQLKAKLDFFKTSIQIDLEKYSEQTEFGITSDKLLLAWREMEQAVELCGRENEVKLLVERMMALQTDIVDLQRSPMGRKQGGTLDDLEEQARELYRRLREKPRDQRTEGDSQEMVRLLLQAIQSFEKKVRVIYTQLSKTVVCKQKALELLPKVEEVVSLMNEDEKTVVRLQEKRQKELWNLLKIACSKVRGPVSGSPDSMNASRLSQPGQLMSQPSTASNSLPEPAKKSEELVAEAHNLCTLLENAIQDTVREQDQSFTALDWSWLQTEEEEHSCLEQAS
Assay type: biochemical
Procedure, shortened: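 C-terminally FLAG-tagged human IKK-2 homodimer, baculovirus-expressed in insect cells and anti-FLAG purified. Reaction mix: 5 μM biotinylated IκBα peptide (Ser32/Ser36 region), 1 μM ATP with [γ-33P]ATP, 2 mM MgCl2, 2 mM MnCl2, 10 mM NaF, 1 mM DTT, 25 mM HEPES pH 7.6. Incubated 30 min at 25 °C; IC50 derived.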

Structure (SMILES) | IC50 [µM]
CCOc1cc(-n2cc(NC(N)=O)c(C(N)=O)n2)ccc1-c1cccc(OCC#N)c1 [Example 231, 4-[(aminocarbonyl)amino]-1-[3′-(cyanomethoxy)-2-ethoxy-1,1′-biphenyl-4-yl]-1H-pyrazole-3-carboxamide] | 4.88
CCOc1cc(-n2cc(NC(N)=O)c(C(N)=O)n2)ccc1-c1ccccc1O [Example 232, 4-[(aminocarbonyl)amino]-1-(2-ethoxy-2′-hydroxy-1,1′-biphenyl-4-yl)-1H-pyrazole-3-carboxamide] | 10.3
CCOc1cc(-n2cc(NC(N)=O)c(C(N)=O)n2)ccc1-c1ccccc1OCC#N [Example 236, 4-[(aminocarbonyl)amino]-1-[2′-(cyanomethoxy)-2-ethoxy-1,1′-biphenyl-4-yl]-1H-pyrazole-3-carboxamide] | 3.05
N#CCOc1cccc(-c2ccc(-n3cc(NC(N)=O)c(C(N)=O)n3)cc2C(F)(F)F)c1 [Example 237, 4-[(aminocarbonyl)amino]-1-[3′-(cyanomethoxy)-2-(trifluoromethyl)-1,1′-biphenyl-4-yl]-1H-pyrazole-3-carboxamide] | 3.9
N#CCOc1ccccc1-c1ccc(-n2cc(NC(N)=O)c(C(N)=O)n2)cc1C(F)(F)F [Example 238, 4-[(aminocarbonyl)amino]-1-[2′-(cyanomethoxy)-2-(trifluoromethyl)-1,1′-biphenyl-4-yl]-1H-pyrazole-3-carboxamide] | 1.11
Cc1cc(-n2cc(NC(N)=O)c(C(N)=O)n2)ccc1-c1cccc(OCC#N)c1 [Example 243, 1-(3′-Cyanomethoxy-2-methyl-biphenyl-4-yl)-4-ureido-1H-pyrazole-3-carboxylic acid amide] | 8.11
Cc1cc(-n2cc(NC(N)=O)c(C(N)=O)n2)ccc1-c1ccc(F)cc1OCC#N [Example 244, 1-(2′-Cyanomethoxy-4′-fluoro-2-methyl-biphenyl-4-yl)-4-ureido-1H-pyrazole-3-carboxylic acid amide] | 0.866
CC(=O)COc1cccc(-c2ccc(-n3cc(NC(N)=O)c(C(N)=O)n3)cc2)c1 [Example 253, 4-[(aminocarbonyl)amino]-1-[3′-(2-oxopropoxy)-1,1′-biphenyl-4-yl]-1H-pyrazole-3-carboxamide] | 1.01
NC(=O)Nc1cn(-c2ccc(-c3cccc(OCc4ncco4)c3)cc2)nc1C(N)=O [Example 254, 4-[(aminocarbonyl)amino]-1-[3′-(1,3-oxazol-2-ylmethoxy)-1,1′-biphenyl-4-yl]-1H-pyrazole-3-carboxamide] | 0.352
NC(=O)Nc1cn(-c2ccc(-c3cc(F)ccc3OCc3ncco3)cc2)nc1C(N)=O [Example 255, 4-[(aminocarbonyl)amino]-1-[5′-fluoro-2′-(1,3-oxazol-2-ylmethoxy)-1,1′-biphenyl-4-yl]-1H-pyrazole-3-carboxamide] | 0.762
CNC(=O)COc1ccc(F)cc1-c1ccc(-n2cc(NC(N)=O)c(C(N)=O)n2)cc1 [Example 256, 4-[(aminocarbonyl)amino]-1-{5′-fluoro-2′-[2-(methylamino)-2-oxoethoxy]-1,1′-biphenyl-4-yl}-1H-pyrazole-3-carboxamide] | 1.07
CCNC(=O)COc1ccc(F)cc1-c1ccc(-n2cc(NC(N)=O)c(C(N)=O)n2)cc1 [Example 257, 4-[(aminocarbonyl)amino]-1-{5′-fluoro-2′-[2-(ethylamino)-2-oxoethoxy]-1,1′-biphenyl-4-yl}-1H-pyrazole-3-carboxamide] | 1.35
NC(=O)Nc1cn(-c2ccc(-c3cccc(OCC(=O)O)c3)cc2)nc1C(N)=O [Example 258, [(4′-{3-(aminocarbonyl)-4-[(aminocarbonyl)amino]-1H-pyrazol-1-yl}-1,1′-biphenyl-3-yl)oxy]acetic acid] | 1.02
CC1(C)OB(c2ccc(-n3cc(NC(N)=O)c(C(N)=O)n3)cc2)OC1(C)C [Example 260, 4-[(aminocarbonyl)amino]-1-[4-(4,4,5,5-tetramethyl-1,3,2-dioxaborolan-2-yl)phenyl]-1H-pyrazole-3-carboxamide] | 0.512

The next lines start with the values.

IC50 [µM] | Structure (SMILES)
0.375 | NC(=O)Nc1cn(-c2ccc(-c3cccc(O)c3)c(C(F)(F)F)c2)nc1C(N)=O [Example 233, 4-[(aminocarbonyl)amino]-1-[3′-hydroxy-2-(trifluoromethyl)-1,1′-biphenyl-4-yl]-1H-pyrazole-3-carboxamide]
1.71 | NC(=O)Nc1cn(-c2ccc(-c3ccccc3O)c(C(F)(F)F)c2)nc1C(N)=O [Example 234, 4-[(aminocarbonyl)amino]-1-[2′-hydroxy-2-(trifluoromethyl)-1,1′-biphenyl-4-yl]-1H-pyrazole-3-carboxamide]
13.2 | Cc1cc(-c2ccccc2O)ccc1-n1cc(NC(N)=O)c(C(N)=O)n1 [Example 235, 4-[(aminocarbonyl)amino]-1-(2′-hydroxy-3-methyl-1,1′-biphenyl-4-yl)-1H-pyrazole-3-carboxamide]
0.161 | Cc1cc(-n2cc(NC(N)=O)c(C(N)=O)n2)ccc1-c1cccc(O)c1 [Example 239, 1-(3′-hydroxy-2-methyl-biphenyl-4-yl)-4-ureido-1H-pyrazole-3-carboxylic acid amide]
2.02 | Cc1cc(-n2cc(NC(N)=O)c(C(N)=O)n2)ccc1-c1ccccc1O [Example 240, 1-(2′-Hydroxy-2-methyl-biphenyl-4-yl)-4-ureido-1H-pyrazole-3-carboxylic acid amide]
1.68 | Cc1cc(-n2cc(NC(N)=O)c(C(N)=O)n2)ccc1-c1ccc(F)cc1O [Example 241, 1-(4′-Fluoro-2′-hydroxy-2-methyl-biphenyl-4-yl)-4-ureido-1H-pyrazole-3-carboxylic acid amide]
1.35 | Cc1cc(-n2cc(NC(N)=O)c(C(N)=O)n2)ccc1-c1cc(F)ccc1O [Example 242, 1-(5′-Fluoro-2′-hydroxy-2-methyl-biphenyl-4-yl)-4-ureido-1H-pyrazole-3-carboxylic acid amide]
5.51 | CNC(=O)Nc1cn(-c2ccc(I)c(C)c2)nc1C(N)=O [Example 245, 1-(4-Iodo-3-methyl-phenyl)-4-(3-methyl-ureido)-1H-pyrazole-3-carboxylic acid amide]
3.3 | NC(=O)Nc1cn(-c2cc(Cl)ccc2F)nc1C(N)=O [Example 246, 1-(5-chloro-2-fluoro-phenyl)-4-ureido-1H-pyrazole-3-carboxylic acid amide]
0.386 | NC(=O)Nc1cn(-c2ccc(-c3ccc(C(=O)O)c(F)c3)cc2F)nc1C(N)=O [Example 248, 4′-{3-(aminocarbonyl)-4-[(aminocarbonyl)amino]-1H-pyrazol-1-yl}-3,3′-difluoro-1,1′-biphenyl-4-carboxylic acid]
0.892 | NC(=O)Nc1cn(-c2ccc(-c3ccccc3O)cc2F)nc1C(N)=O [Example 249, 4-[(aminocarbonyl)amino]-1-(3-fluoro-2′-hydroxy-1,1′-biphenyl-4-yl)-1H-pyrazole-3-carboxamide]
0.279 | N#CCOc1ccccc1-c1ccc(-n2cc(NC(N)=O)c(C(N)=O)n2)c(F)c1 [Example 250, 4-[(aminocarbonyl)amino]-1-[2′-(cyanomethoxy)-3-fluoro-1,1′-biphenyl-4-yl]-1H-pyrazole-3-carboxamide]
0.662 | NC(=O)Nc1cn(-c2ccc(I)cc2Cl)nc1C(N)=O [Example 251, 4-[(aminocarbonyl)amino]-1-(2-chloro-4-iodophenyl)-1H-pyrazole-3-carboxamide]
0.492 | NC(=O)COc1ccc(F)cc1-c1ccc(-n2cc(NC(N)=O)c(C(N)=O)n2)cc1 [Example 252, 4-[(aminocarbonyl)amino]-1-[2′-(2-amino-2-oxoethoxy)-5′-fluoro-1,1′-biphenyl-4-yl]-1H-pyrazole-3-carboxamide]
4.01 | NC(=O)Nc1cn(-c2ccc(-c3cc(F)ccc3OCC(=O)O)cc2)nc1C(N)=O [Example 259, [(4′-{3-(aminocarbonyl)-4-[(aminocarbonyl)amino]-1H-pyrazol-1-yl}-5-fluoro-1,1′-biphenyl-2-yl)oxy]acetic acid]
1.18 | NC(=O)Nc1cn(-c2ccc(-c3ccccc3O)c(F)c2)nc1C(N)=O [Example 261, 4-[(aminocarbonyl)amino]-1-(2-fluoro-2′-hydroxy-1,1′-biphenyl-4-yl)-1H-pyrazole-3-carboxamide]
0.842 | NC(=O)Nc1cn(-c2ccc(-c3ccc(F)cc3O)c(F)c2)nc1C(N)=O [Example 262, 4-[(aminocarbonyl)amino]-1-(2,4′-difluoro-2′-hydroxy-1,1′-biphenyl-4-yl)-1H-pyrazole-3-carboxamide]
3.7 | NC(=O)Nc1cn(-c2ccc(Sc3ccccc3F)c(Cl)c2)nc1C(N)=O [Example 270, 4-[(aminocarbonyl)amino]-1-{3-chloro-4-[(2-fluorophenyl)thio]phenyl}-1H-pyrazole-3-carboxamide]
